Source: patent publication US12616753B2, “HSP70 inhibitors and methods of using same” (THE WISTAR INSTITUTE, priority 2020, dated 2026)

Test system: mutant p53 and MRPS14
Experiment: Western blot in mouse CRC cell lines
Format: cell-based
Settings: 10 μM, 24 or 48 hours
Experimental: FIGS. 5A-5F show AP-4-139B is efficacious against CRC in an immunocompetent model, and causes immune cell recruitment. FIGS. 5A-5B: Mouse CRC cell lines, MC38 (FIG. 5A) and CT26 (FIG. 5B), were plated at a density of 1,000 cells per well in 96-well plates. The next day, cells were treated with the indicated inhibitors for 72 hours. Cells were then subjected to the Alamar Blue cell viability assays. Shown are representative IC50 values of an average of six technical replicates and two biological replicates. FIG. 5C: Mouse CRC cell lines MC38 and CT26 were treated with 10 μM AP-4-139B for 24 or 48 hours and immunoblotted for HSP70, p53, AKT, Cleaved Lamin A (CLA), Cleaved Caspase 3, MRPS14, and GAPDH (loading control). The doublet detected for HSP70 is seen in other murine cell lines, and may represent a degradation product or post-translational modification. FIG. 5D: 1×10^6 MC38 cells were injected subcutaneously into the right flank of 6-8 week old male C57Bl/6 mice. Once tumors reached an approximate volume of 50 mm^3, mice were separated randomly into two groups: vehicle vs. AP-4-139B. Mice were treated with 10 mg/kg AP-4-139B every 48 hours. All mice were euthanized 20 days after the start of treatment. Tumor volumes were recorded using digital calipers and using the formula v=length×width^2×0.52. *** p<0.001. n=15 mice per group.

With `c1ccc(-c2cn3nc(CCCCCC[P+](c4ccccc4)(c4ccccc4)c4ccccc4)sc3n2)cc1` [AP-4-139B, Triphenyl(6-(6-phenylimidazo[2,1-b][1,3,4]thiadiazol-2-yl)hexyl)phosphonium bromide] the “levels of mutant p53 and MRPS14 in MC38 cells” value was “decreased levels”.
